# Measurements from patent US20250215029A1 (Recludix Pharma, Inc., priority 2022, published 2025).
# Read-outs that look alike come from different tables or passages of the source.
# How the values were obtained:
# [1] = biological target: T1, Recombinant STAT3 protein (STAT3 (G127-I722)) (Homo sapiens, UniProt P40763); experiment: STAT3 Fluorescence Polarization (FP) Assay; format: binding; conditions: probe 5-FAM-GpYLPQTV-NH2 2 nM, 45-minute incubation
# T1 construct: Recombinant STAT3 protein (STAT3 (G127-I722))
# Summary of the method: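 Displacement of a fluorescent phosphotyrosine peptide (5-FAM-GpYLPQTV-NH2, 2 nM) from 25 nM recombinant STAT3 G127-I722 was monitored by FP after 45 min at room temperature.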
# [2] = biological target: T2, Recombinant STAT6 protein (STAT6 (W123-T658)) (Homo sapiens, UniProt P42226); experiment: STAT6 Fluorescence Polarization (FP) Assay; format: binding; conditions: 45-minute incubation
# T2 construct: Recombinant STAT6 protein (STAT6 (W123-T658))
# T2 sequence (P42226 123-658): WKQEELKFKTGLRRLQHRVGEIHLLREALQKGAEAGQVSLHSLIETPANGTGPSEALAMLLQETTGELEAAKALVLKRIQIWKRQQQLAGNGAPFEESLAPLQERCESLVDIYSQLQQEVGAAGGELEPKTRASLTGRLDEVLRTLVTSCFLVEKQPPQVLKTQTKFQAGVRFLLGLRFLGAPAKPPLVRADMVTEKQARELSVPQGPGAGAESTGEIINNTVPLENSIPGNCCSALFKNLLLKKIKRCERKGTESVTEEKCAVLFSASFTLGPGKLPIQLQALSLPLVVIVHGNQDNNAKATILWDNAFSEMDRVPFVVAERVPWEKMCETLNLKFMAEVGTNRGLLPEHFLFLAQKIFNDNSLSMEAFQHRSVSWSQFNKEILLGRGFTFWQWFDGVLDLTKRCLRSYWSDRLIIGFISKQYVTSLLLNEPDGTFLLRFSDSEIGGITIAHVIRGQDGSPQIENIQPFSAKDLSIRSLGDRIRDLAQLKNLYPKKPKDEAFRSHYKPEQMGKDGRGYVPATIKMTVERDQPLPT
# Summary of the method: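 Serially diluted compounds received a premix of STAT6 (W123-T658, 250 nM) and 5-FAM peptide probe (2 nM) in pH 7.4 HEPES buffer containing DTT and Tween 20. Following 45 min at room temperature, FP was recorded. IC50s were fitted by nonlinear regression; values are binned A (≤300 nM), B (>300-3000 nM), C (>3-30 μM), D (>30 μM).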
# [3] = STAT3 (G127-I722) 25 nM, read-out: STAT3 (FP assay IC50 class)
# [4] = STAT6 (W123-T658) 250 nM, probe 5-FAM-Ap[…]-NH2 2 nM, read-out: STAT6 (FP assay IC50 class)
# [5] = STAT3 25 nM, read-out: STAT3 (FP assay IC50)
# [6] = STAT6 250 nM, probe 5-FAM-Ap[…]-NH2 2 nM, read-out: STAT6 (FP assay IC50)
# T1 sequence (P40763 127-722): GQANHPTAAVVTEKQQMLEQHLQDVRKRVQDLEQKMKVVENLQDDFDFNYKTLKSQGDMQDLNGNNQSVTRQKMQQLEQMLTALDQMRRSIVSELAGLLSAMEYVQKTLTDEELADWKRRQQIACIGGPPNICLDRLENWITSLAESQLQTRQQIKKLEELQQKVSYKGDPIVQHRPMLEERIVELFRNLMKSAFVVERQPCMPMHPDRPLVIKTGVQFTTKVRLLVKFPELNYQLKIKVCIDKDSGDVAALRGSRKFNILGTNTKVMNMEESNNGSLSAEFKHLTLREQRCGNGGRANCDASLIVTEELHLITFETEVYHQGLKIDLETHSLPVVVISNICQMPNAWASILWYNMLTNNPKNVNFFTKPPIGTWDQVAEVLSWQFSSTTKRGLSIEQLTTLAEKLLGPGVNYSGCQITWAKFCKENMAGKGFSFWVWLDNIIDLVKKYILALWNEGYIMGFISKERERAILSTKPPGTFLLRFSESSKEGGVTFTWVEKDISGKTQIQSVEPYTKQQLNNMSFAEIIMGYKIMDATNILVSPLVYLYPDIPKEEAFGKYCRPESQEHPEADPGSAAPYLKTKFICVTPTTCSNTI
SMILES,"IC50 [1, 3] [nM]","IC50 [2, 4] [nM]","IC50 [1, 5] [nM]","IC50 [2, 6] [nM]","IC50 ([2]; STAT6 (W123-T658) 250 nM, probe 5-FAM-ApYKPFQDLI-NH2 2 nM, read-out: STAT6 (FP assay IC50 class)) [nM]"
"N#CC1C(c2ccccc2)CN(C(=O)[C@@H]2CC[C@@H]3CCC[C@H](NC(=O)c4cc5cc(C(F)(F)P(=O)(O)O)ccc5s4)C(=O)N32)C12CC2 (stereo in doubt) [Compound 865, ((2-(((3S,6S,9aS)-3-((6S,7R)-7-cyano-6-phenyl-4-azaspiro[2.4]heptane-4-carbonyl)-5-oxooctahydro-1H-pyrrolo[1,2-a]azepin-6-yl)carbamoyl)benzo [b]thiophen-5-yl)difluoromethyl) phosphonic acid]",1000 to 10000,≤ 300,–,–,–
"COc1ccc(N(C)C(=O)[C@@H]2CC[C@@H]3CCCC[C@H](NC(=O)c4cc5cc(C(F)(F)P(=O)(O)O)ccc5s4)C(=O)N32)cn1 [Compound 44, (difluoro(2-(((3S,6S,10aS)-3-((6-methoxypyridin-3-yl)(methyl)carbamoyl)-5-oxodecahydro-pyrrolo[1,2-a]azocin-6-yl)carbamoyl)benzo[b]thiophen-5-yl)methyl) phosphonic acid]",–,–,1000 to 10000,300 to 3000,–
"Cc1cnn(C2CN(C(=O)[C@@H]3CC[C@@H]4CCCC[C@H](NC(=O)c5cc6cc(C(F)(F)P(=O)(O)O)ccc6s5)C(=O)N43)C2)c1 [Compound 68, (difluoro(2-(((3S,6S,10aS)-3-(3-(4-methyl-1H-pyrazol-1-yl)azetidine-1-carbonyl)-5-oxodecahydropyrrolo [1,2-a]azocin-6-yl)carbamoyl)benzo[b]thiophen-5-yl)methyl) phosphonic acid]",–,–,100 to 1000,3000 to 30000,–
"N#C[C@@H]1CN(C(=O)[C@@H]2CC[C@@H]3CCCC[C@H](NC(=O)c4cc5cc(C(F)(F)P(=O)(O)O)ccc5s4)C(=O)N32)C[C@H]1c1cccc(=O)[nH]1 (relative stereo) [Compound 867, ((2-(((3S,6S,10aS)-3-((rel-trans)-3-cyano-4-(6-oxo-1,6-dihydropyridin-2-yl)pyrrolidine-1-carbonyl)-5-oxodecahydropyrrolo [1,2-a]azocin-6-yl)carbamoyl)benzo [b]thiophen-5-yl)difluoromethyl) phosphonic acid]",100 to 1000,–,–,–,≤ 300
"CCCC(=O)NC1(c2ccccn2)CN(C(=O)[C@@H]2CC[C@@H]3CCCC[C@H](NC(=O)c4cc5cc(C(F)(F)P(=O)(O)O)ccc5s4)C(=O)N32)C1 [Compound 122, ((2-(((3S,6S,10aS)-3-(3-butyramido-3-(pyridin-2-yl)azetidine-1-carbonyl)-5-oxodecahydropyrrolo[1,2-a]azocin-6-yl)carbamoyl)benzo[b]thiophen-5-yl)difluoromethyl)phosphonic acid]",–,–,< 100,3000 to 30000,–
Cc1nnc([C@H]2[C@H](c3ccccc3)CN2C(=O)[C@@H]2CC[C@@H]3CCC[C@H](NC(=O)c4cc5cc(C(F)P(=O)(O)O)ccc5s4)C(=O)N32)o1 (some centres unmarked) [Compound 673],100 to 1000,3000 to 30000,–,–,–
"Cc1cncnc1C1CN(C(=O)[C@@H]2CC[C@@H]3CCC[C@H](NC(=O)c4cc5cc(CP(=O)(O)O)ccc5s4)C(=O)N32)C1 [Compound 650, ((2-(((3S,6S,9aS)-3-(3-(5-methylpyrimidin-4-yl)azetidine-1-carbonyl)-5-oxooctahydro-1H-pyrrolo[1,2-a]azepin-6-yl)carbamoyl)benzo [b]thiophen-5-yl)methyl) phosphonic acid]",1000 to 10000,3000 to 30000,–,–,–
"CN(C)c1ncncc1C1CN(C(=O)[C@@H]2CC[C@@H]3CCC[C@H](NC(=O)c4cc5cc(C(F)P(=O)(O)O)ccc5s4)C(=O)N32)C1 (stereo partly drawn) [Compound 739, ((2-(((3S,6S,9aS)-3-(3-(4-(dimethylamino)pyrimidin-5-yl)azetidine-1-carbonyl)-5-oxooctahydro-1H-pyrrolo[1,2-a]azepin-6-yl)carbamoyl)benzo [b]thiophen-5-yl)fluoromethyl) phosphonic acid]",< 100,3000 to 30000,–,–,–

# More lines, main results first:
"IC50 [1, 3] [nM]","IC50 [2, 4] [nM]","IC50 [1, 5] [nM]","IC50 [2, 6] [nM]",SMILES,"IC50 ([2]; STAT6 (W123-T658) 250 nM, probe 5-FAM-ApYKPFQDLI-NH2 2 nM, read-out: STAT6 (FP assay IC50 class)) [nM]"
1000 to 10000,300 to 3000,–,–,"O=C(N[C@H]1CCCC[C@H]2CC[C@@H](C(=O)N[C@H]3CN(C(=O)OC4CC4)C[C@@H]3F)N2C1=O)c1cc2cc(C(F)P(=O)(O)O)ccc2s1 (stereo partly drawn) [Compound 554, ((2-(((3S,6S,10aS)-3-(((3S,4S)-1-(cyclopropoxycarbonyl)-4-fluoropyrrolidin-3-yl)carbamoyl)-5-oxodecahydropyrrolo[1,2-a]azocin-6-yl)carbamoyl)benzo[b]thiophen-5-yl)fluoromethyl)phosphonic acid]",–
–,–,100 to 1000,≤ 300,"C[C@@]1(O)CC[C@H]2CC[C@@H](C(=O)N3C[C@H](c4ccccc4)[C@@H](C#N)C3)N2C(=O)[C@@H](NC(=O)c2cc3cc(C(F)(F)P(=O)(O)O)ccc3s2)C1 (single isomer, unassigned) [Compound 14, ((2-(((3S,6S,8R,10aR)-3-((3R,4S or 3S,4R)-3-cyano-4-phenylpyrrolidine-1-carbonyl)-8-hydroxy-8-methyl-5-oxodecahydropyrrolo [1,2-a]azocin-6-yl)carbamoyl)benzo[b]thiophen-5-yl)difluoromethyl) phosphonic acid]",–
–,–,< 100,300 to 3000,"O=C(N[C@H]1CCC[C@H]2CC[C@@H](C(=O)N3CC(O)(c4ccccn4)C3)N2C1=O)c1cc2cc(C(F)(F)P(=O)(O)O)ccc2s1 [Compound 45, (difluoro(2-(((3S,6S,9aS)-3-(3-hydroxy-3-(pyridin-2-yl)azetidine-1-carbonyl)-5-oxooctahydro-1H-pyrrolo[1,2-a]azepin-6-yl)carbamoyl)benzo[b]thiophen-5-yl)methyl) phosphonic acid]",–
100 to 1000,300 to 3000,–,–,"Cn1ccc([C@@H]2CN(C(=O)[C@@H]3CC[C@@H]4CCCC[C@H](NC(=O)c5cc6cc(C(F)P(=O)(O)O)ccc6s5)C(=O)N43)C[C@H]2C#N)cc1=O (single isomer, unassigned) [Compound 227]",–
1000 to 10000,300 to 3000,–,–,"O=C(/C=C/c1ccc(C(F)(F)P(=O)(O)O)cc1)N[C@H]1CCCC[C@H]2CC[C@@H](C(=O)N3Cc4cnn(-c5ccccc5)c4C3)N2C1=O [Compound 829, (difluoro(4-((E)-3-oxo-3-(((3S,6S,10aS)-5-oxo-3-(1-phenyl-1,4,5,6-tetrahydropyrrolo[3,4-c]pyrazole-5-carbonyl)decahydropyrrolo[1,2-a]azocin-6-yl)amino)prop-1-en-1-yl)phenyl)methyl) phosphonic acid]",–
< 100,3000 to 30000,–,–,"O=C(N[C@H]1CCC[C@H]2CC[C@@H](C(=O)N3CC(c4cccnc4)C3)N2C1=O)c1cc2cc([C@H](F)P(=O)(O)O)ccc2s1 [Compound 870, ((R)-fluoro(2-(((3S,6S,9aS)-5-oxo-3-(3-(pyridin-3-yl)azetidine-1-carbonyl)octahydro-1H-pyrrolo[1,2-a]azepin-6-yl)carbamoyl)benzo [b]thiophen-5-yl)methyl) phosphonic acid]",–
1000 to 10000,≤ 300,–,–,"N#C[C@@H]1[C@@H](c2cncc(Cl)c2)CN(C(=O)[C@@H]2CC[C@@H]3CCCC[C@H](NC(=O)c4cc5cc([C@H](F)P(=O)(O)O)ccc5s4)C(=O)N32)C12CC2 (single isomer, unassigned) [Compound 845]",–
100 to 1000,3000 to 30000,–,–,"Cn1ncc(F)c1C1CN(C(=O)[C@@H]2CC[C@@H]3CCC[C@H](NC(=O)c4cc5cc(C(F)P(=O)(O)O)ccc5s4)C(=O)N32)C1 (stereo partly drawn) [Compound 751, (fluoro(2-(((3S,6S,9aS)-3-(3-(4-fluoro-1-methyl-1H-pyrazol-5-yl)azetidine-1-carbonyl)-5-oxooctahydro-1H-pyrrolo[1,2-a]azepin-6-yl)carbamoyl)benzo [b]thiophen-5-yl)methyl) phosphonic acid]",–
